This test deals with T1, AIM2 inflammasome (Mus musculus, UniProt Q91VJ1).
T1 construct: endogenous in cells; host or cells: primary microglia from NLRP3 KO mice
T1 sequence (Q91VJ1 1-354): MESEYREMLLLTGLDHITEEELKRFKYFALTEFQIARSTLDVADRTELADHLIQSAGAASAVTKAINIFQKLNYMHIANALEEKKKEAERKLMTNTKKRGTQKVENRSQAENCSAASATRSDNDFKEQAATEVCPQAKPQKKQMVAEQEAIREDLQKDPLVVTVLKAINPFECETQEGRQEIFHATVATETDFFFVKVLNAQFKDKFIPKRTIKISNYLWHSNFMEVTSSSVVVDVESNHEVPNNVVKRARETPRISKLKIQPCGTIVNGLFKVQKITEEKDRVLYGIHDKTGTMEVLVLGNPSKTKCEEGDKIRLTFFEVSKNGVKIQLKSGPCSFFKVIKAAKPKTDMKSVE
The experiment in a line: AIM2 inflammasome activation assay: IL-1β release, microglia from NLRP3 KO mice, LPS and poly(dA:dT). In kind it is cell-based. How it is done: AIM2, NLRP7, and NLRC4 inflammasomes activation assays. Microglia from NLRP3 KO mice were pre-treated with 100 μM C75, C78, C97, or C77, during one hour. AIM2 inflammasome activation was induced through the addition of 100 ng/ml LPS for 2 hours, followed by transfection of 1 μg poly(dA:dT) using Lipofectamine 2000 during 2 hours, following the manufacturer recommendations. NLRC4 was activated by treatment with 150 ng/ml LPS for 2 hours, before transfection of 1 μg flagellin during 2 hours, using lipofectamine 2000 as transfection reagent. Negative and positive controls were pre-treated with the same DMSO percentage as cells treated with the inhibitors. Negative controls were kept untreated after DMSO addition, while LPS-poly(dA:dT) or LPS-flagellin was added to positive controls for AIM2, and NLRC4 activation, respectively. For activation of the NLRP7 inflammasome different conditions were assessed: treatment of WT microglia cultures with 400 ng/ml fibroblast-stimulating lipopeptide-1 (fsl-1) for 7 hours, priming with 150 ng/ml LPS for 1 hour and treatment with 400 ng/ml fsl-1 for 7 hours, and priming with 150 ng/ml LPS and transfection of 400 ng/ml fsl-1 with lipofectamine. MCC950 was used as a negative control for NLRC4 and AIM-2 inhibition. […]
Cytokine quantification. […] IL-1β precursor and cleaved IL-1β in the FC of mice treated with vehicles, LPS, or C77-LPS was assessed by western blot. […]

Structures are written as SMILES.

Turning to `O=C(Cn1c(=O)oc2ccccc21)NCc1cncc(-c2ccsc2)c1` [Compound C77], the “inhibition of AIM2-mediated IL-1β release” value is given as “did not inhibit”.

These data come from patent US20240158386A1, “BENZOXAZOLONE INHIBITORS OF INFLAMMASOMES” (ICAHN SCHOOL OF MEDICINE AT MOUNT SINAI, priority 2021, published 2024).
